Columns and labels:
Plasmodium falciparum = assay: Antimicrobial activity against Plasmodium falciparum; format: functional, organism-based
Leishmania = assay: Antimicrobial activity against Leishmania; format: functional
Leishmania amazonensis = assay: Antimicrobial activity against Leishmania amazonensis; format: functional, organism-based
Trypanosoma cruzi = assay: Antimicrobial activity against Trypanosoma cruzi; format: functional, organism-based; conditions: Trypanosoma cruzi
Leishmania major = assay: Antimicrobial activity against Leishmania major; format: functional, organism-based
Leishmania mexicana = assay: Antimicrobial activity against Leishmania mexicana; format: functional, organism-based
Leishmania donovani = assay: Antimicrobial activity against Leishmania donovani; format: functional, organism-based

Row | SMILES | IC50 (Leishmania amazonensis) [nM] | IC50 (Trypanosoma cruzi) [nM] | IC50 (Leishmania major) [nM] | IC50 (Leishmania mexicana) [nM] | also measured
1 | CN1CCN(C)C1c1ccc(N2CCN(c3ccc(C4N(C)CCN4C)cc3)CC2)cc1 | – | – | – | – | IC50 (Plasmodium falciparum): 1000 nM; IC50 (Leishmania): 100000 nM
2 | C[C@]12CC[C@H](O)C[C@@H]1CC[C@@H]1[C@@H]2CC[C@@]2(C)[C@H]1CC[C@@H]2[C@@](C)(O)c1ccccn1 | 3000 | 1000 | 100000 | – | –
3 | C[C@]12CC[C@H](O)C[C@@H]1CC[C@@H]1[C@@H]2CC[C@@]2(C)[C@H]1CC[C@@H]2[C@@](C)(O)c1ccncc1Cl | 1000 | 1000 | 8000 | – | –
4 | C(=N\Nc1ccccc1)/c1ccc(N2CCN(c3ccc(/C=N/Nc4ccccc4)cc3)CC2)cc1 | – | – | – | – | IC50 (Leishmania): 34000 nM
5 | N=C(N)c1cccc(C(=N)N)c1-c1cc2ccccc2[nH]1 | – | – | – | 3000 | –
6 | N=C(N)c1ccc(/C=C/c2ccc(C(=N)N)cc2)cc1 [STILBAMIDINE] | – | – | – | 9000 | –
7 | C[C@]12CC[C@H](O)C[C@@H]1CC[C@@H]1[C@@H]2CC[C@@]2(C)[C@H]1CC[C@@H]2[C@@](C)(O)c1ccncc1 | 1000 | 1000 | 12000 | – | –
8 | N=C(N)c1ccc(OCCCCCOc2ccc(C(=N)N)cc2)cc1 [PENTAMIDINE] | – | – | – | 1000 | IC50 (Leishmania donovani): 1000 nM
9 | N=C(N)c1ccc(OCCCOc2ccc(C(=N)N)cc2)cc1 [PROPAMIDINE] | – | – | – | 10000 | –

From ChEMBL document CHEMBL1212812, “Multi-target spectral moment QSAR versus ANN for antiparasitic drugs against different parasite species” (Bioorg Med Chem, 2010)
